Experimental data from article PMC6199744, “Development of Chemical Proteomics for the Folateome and Analysis of the Kinetoplastid Folateome” (ACS Infectious Diseases, 2018).
Where two headings read alike, the source gives them in different places.

What was measured:
Type in all cases: binding
[1] = biological target: T1, HeLa cell extract proteins (Homo sapiens, UniProt Q13126)
T1 construct: endogenous in cells; host or cells: HeLa cell extract
T1 sequence (Q13126 1-283): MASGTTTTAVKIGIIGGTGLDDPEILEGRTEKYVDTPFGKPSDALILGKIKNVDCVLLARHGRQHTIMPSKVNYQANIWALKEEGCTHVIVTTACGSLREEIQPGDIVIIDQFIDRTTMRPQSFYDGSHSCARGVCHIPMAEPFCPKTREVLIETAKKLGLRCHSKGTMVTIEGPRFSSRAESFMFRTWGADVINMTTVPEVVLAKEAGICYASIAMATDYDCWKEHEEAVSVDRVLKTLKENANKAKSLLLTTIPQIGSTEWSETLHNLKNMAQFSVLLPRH

[2] = biological target: T2, HeLa cell extract proteins (Homo sapiens, UniProt Q99714)
T2 construct: endogenous in cells; host or cells: HeLa cell extract
T2 sequence (Q99714 1-261): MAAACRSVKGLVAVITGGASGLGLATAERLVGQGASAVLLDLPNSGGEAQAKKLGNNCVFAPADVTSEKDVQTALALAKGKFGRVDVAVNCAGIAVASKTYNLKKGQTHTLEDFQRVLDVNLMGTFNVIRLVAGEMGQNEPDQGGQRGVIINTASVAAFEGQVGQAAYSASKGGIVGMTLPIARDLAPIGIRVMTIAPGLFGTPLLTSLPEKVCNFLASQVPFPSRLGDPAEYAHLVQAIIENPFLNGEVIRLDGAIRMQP

[3] = biological target: T3, HeLa cell extract proteins (Homo sapiens, UniProt P37802)
T3 construct: endogenous in cells; host or cells: HeLa cell extract

[4] = biological target: T4, HeLa cell extract proteins (Homo sapiens, UniProt Q9BW27)
T4 construct: endogenous in cells; host or cells: HeLa cell extract
T4 sequence (Q9BW27 1-656): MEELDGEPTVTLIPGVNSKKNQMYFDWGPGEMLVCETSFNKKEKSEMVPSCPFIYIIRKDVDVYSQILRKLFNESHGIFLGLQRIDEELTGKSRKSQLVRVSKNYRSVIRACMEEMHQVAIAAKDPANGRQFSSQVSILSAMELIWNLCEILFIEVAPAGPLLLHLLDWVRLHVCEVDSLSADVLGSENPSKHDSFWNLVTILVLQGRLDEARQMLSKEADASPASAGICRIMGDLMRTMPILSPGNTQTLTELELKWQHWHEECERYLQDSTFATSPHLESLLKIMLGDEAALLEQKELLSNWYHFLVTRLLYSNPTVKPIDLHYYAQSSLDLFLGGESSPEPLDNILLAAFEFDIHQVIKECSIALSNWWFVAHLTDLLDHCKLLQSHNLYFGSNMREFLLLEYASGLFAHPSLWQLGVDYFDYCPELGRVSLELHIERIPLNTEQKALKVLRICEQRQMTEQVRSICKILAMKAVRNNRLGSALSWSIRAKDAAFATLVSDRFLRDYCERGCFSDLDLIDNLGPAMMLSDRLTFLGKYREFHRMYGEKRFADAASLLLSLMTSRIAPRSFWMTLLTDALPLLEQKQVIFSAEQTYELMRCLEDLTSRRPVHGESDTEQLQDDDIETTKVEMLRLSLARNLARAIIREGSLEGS

[5] = biological target: T5, HeLa cell extract proteins (Homo sapiens, UniProt P55060)
T5 construct: endogenous in cells; host or cells: HeLa cell extract
T5 sequence (P55060 1-971): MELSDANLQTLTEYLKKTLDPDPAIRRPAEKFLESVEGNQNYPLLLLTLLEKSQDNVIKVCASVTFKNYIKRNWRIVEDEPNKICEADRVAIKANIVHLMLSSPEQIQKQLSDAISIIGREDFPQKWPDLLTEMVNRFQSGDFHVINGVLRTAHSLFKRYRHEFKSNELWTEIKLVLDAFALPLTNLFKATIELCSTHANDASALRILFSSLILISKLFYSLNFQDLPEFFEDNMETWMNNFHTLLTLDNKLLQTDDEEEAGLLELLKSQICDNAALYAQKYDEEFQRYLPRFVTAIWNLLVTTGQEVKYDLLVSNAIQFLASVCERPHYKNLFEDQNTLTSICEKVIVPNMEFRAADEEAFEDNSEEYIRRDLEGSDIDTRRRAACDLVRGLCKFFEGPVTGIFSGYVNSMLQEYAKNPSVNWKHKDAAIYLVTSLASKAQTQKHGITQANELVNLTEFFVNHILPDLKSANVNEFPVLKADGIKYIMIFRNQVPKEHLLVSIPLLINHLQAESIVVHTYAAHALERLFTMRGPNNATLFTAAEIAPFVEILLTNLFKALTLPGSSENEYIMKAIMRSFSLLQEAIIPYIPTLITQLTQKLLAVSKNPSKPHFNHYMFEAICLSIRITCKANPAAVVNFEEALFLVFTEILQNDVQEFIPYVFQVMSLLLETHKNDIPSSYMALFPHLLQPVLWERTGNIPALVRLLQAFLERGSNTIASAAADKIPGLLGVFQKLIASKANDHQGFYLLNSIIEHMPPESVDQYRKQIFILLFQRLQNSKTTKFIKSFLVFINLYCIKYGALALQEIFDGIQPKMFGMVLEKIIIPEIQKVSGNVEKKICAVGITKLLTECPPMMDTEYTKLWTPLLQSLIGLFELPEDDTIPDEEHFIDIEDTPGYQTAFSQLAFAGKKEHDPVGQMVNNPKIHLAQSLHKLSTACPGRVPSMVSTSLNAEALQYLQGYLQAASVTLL

T3 sequence (P37802 whole entry): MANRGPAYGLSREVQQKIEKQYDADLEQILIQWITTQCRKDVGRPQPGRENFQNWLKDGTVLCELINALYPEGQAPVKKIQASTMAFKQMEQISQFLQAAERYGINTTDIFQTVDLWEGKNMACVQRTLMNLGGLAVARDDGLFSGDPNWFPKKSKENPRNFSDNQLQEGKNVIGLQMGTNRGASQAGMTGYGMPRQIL

SMILES: Nc1nc2c(c(=O)[nH]1)N(C=O)C(CNc1ccc(C(=O)N[C@@H](CCC(=O)O)C(=O)O)cc1)CN2 (some centres unmarked) [LEU, leucovorin]
- fold changes relative to vehicle control ([1]; HeLa, captured protein MTAP): 1.13
- fold changes relative to vehicle control ([2]; HeLa, protein HSD17B10): 0.93
- fold changes relative to vehicle control ([3]; HeLa, protein TAGLN2): 0.97
- fold changes relative to vehicle control ([4]; protein NUP85, HeLa): 0.82
- fold changes relative to vehicle control ([5]; protein CSE1L, HeLa): 0.94

SMILES: Nc1nc2[nH]cc(CCc3ccc(C(=O)N[C@@H](CCC(=O)O)C(=O)O)cc3)c2c(=O)[nH]1 [PTX, pemetrexed]
- fold changes relative to vehicle control [1]: 0.98
- fold changes relative to vehicle control [2]: 0.9
- fold changes relative to vehicle control [3]: 1.18
- fold changes relative to vehicle control [4]: 0.9
- fold changes relative to vehicle control [5]: 0.88

SMILES: CCCCCCOc1ccc(Cc2cnc(N)nc2N)cc1 [compound 1]
- fold changes relative to vehicle control ([1]; protein MTAP, HeLa): 0.9
- fold changes relative to vehicle control ([2]; protein HSD17B10, HeLa): 0.91
- fold changes relative to vehicle control ([3]; protein TAGLN2, HeLa): 1.17
- fold changes relative to vehicle control ([4]; captured protein NUP85, HeLa): 0.93
- fold changes relative to vehicle control ([5]; protein CSE1L, HeLa): 1.02

SMILES: CCCCCCOc1cccc(Cc2cnc(N)nc2N)c1 [compound 2]
- fold changes relative to vehicle control ([1]; protein MTAP, HeLa): 0.78
- fold changes relative to vehicle control ([2]; protein HSD17B10, HeLa): 1.31
- fold changes relative to vehicle control ([3]; protein TAGLN2, HeLa): 1.66
- fold changes relative to vehicle control ([4]; captured protein NUP85, HeLa): 0.96
- fold changes relative to vehicle control ([5]; protein CSE1L, HeLa): 1.52

SMILES: Nc1nc2cccc(-c3ccccc3)c2n1Cc1ccc(Cl)c(Cl)c1 [compound 3]
- fold changes relative to vehicle control ([1]; protein MTAP, HeLa): 0.99
- fold changes relative to vehicle control ([2]; protein HSD17B10, HeLa): 0.93
- fold changes relative to vehicle control ([3]; protein TAGLN2, HeLa): 0.85
- fold changes relative to vehicle control ([4]; captured protein NUP85, HeLa): 0.9
- fold changes relative to vehicle control ([5]; protein CSE1L, HeLa): 1.06

SMILES: NCCOCCOCC(=O)Nc1nc2ncc(CNc3ccc(C(=O)NC(CCC(=O)O)C(=O)O)cc3)nc2c(=O)[nH]1 (centres unmarked) [compound 6]
- fold changes relative to vehicle control ([1]; HeLa, captured protein MTAP): 0.95
- fold changes relative to vehicle control ([2]; HeLa, protein HSD17B10): 0.94
- fold changes relative to vehicle control ([3]; HeLa, protein TAGLN2): 1.2
- fold changes relative to vehicle control ([4]; protein NUP85, HeLa): 0.93
- fold changes relative to vehicle control ([5]; protein CSE1L, HeLa): 1.09

SMILES: NCCCNc1ccc(C(=O)NC(CCC(=O)O)C(=O)O)cc1 (centres unmarked) [compound 7]
- fold changes relative to vehicle control ([1]; HeLa, captured protein MTAP): 1.01
- fold changes relative to vehicle control ([2]; HeLa, protein HSD17B10): 0.93
- fold changes relative to vehicle control ([3]; HeLa, protein TAGLN2): 0.92
- fold changes relative to vehicle control ([4]; protein NUP85, HeLa): 0.95
- fold changes relative to vehicle control ([5]; protein CSE1L, HeLa): 1.04
